# Assays:
# [1] = tested on: Staphylococcus aureus; experiment: Antibacterial activity against methicillin-susceptible Staphylococcus aureus ATCC 29213 by CLSI M100-S17 protocol based broth dilution method; assay type: functional
# [2] = tested on: Staphylococcus aureus; experiment: Antibacterial activity against methicillin-resistant Staphylococcus aureus isolate SA1114 by CLSI M100-S17 protocol based broth dilution method; assay type: functional
SMILES,MIC [1] [µg/mL],MIC [2] [µg/mL]
CC[C@@H](C)[C@@H](NC(=O)[C@@H](CCC(N)=O)NC(=O)[C@H](CO)NC(=O)[C@@H](NC(=O)[C@@H](Cc1ccccc1)NC)[C@@H](C)CC)C(=O)N[C@H](C(=O)N[C@@H](CO)C(=O)N[C@H]1C(=O)N[C@@H](C)C(=O)N[C@@H](Cc2ccc(F)cc2)C(=O)N[C@@H]([C@@H](C)CC)C(=O)O[C@H]1C)[C@@H](C)CC,0.5,4
CC[C@@H](C)[C@@H](NC(=O)[C@@H](CCC(N)=O)NC(=O)[C@H](CO)NC(=O)[C@@H](NC(=O)[C@@H](Cc1ccccc1)NC)[C@@H](C)CC)C(=O)N[C@H](C(=O)N[C@@H](CO)C(=O)N[C@H]1C(=O)N[C@@H](C)C(=O)N[C@@H](Cc2ccc(Cl)cc2)C(=O)N[C@@H]([C@@H](C)CC)C(=O)O[C@H]1C)[C@@H](C)CC,1,4
CC[C@@H](C)[C@@H](NC(=O)[C@@H](CCC(N)=O)NC(=O)[C@H](CO)NC(=O)[C@@H](NC(=O)[C@@H](Cc1ccccc1)NC)[C@@H](C)CC)C(=O)N[C@H](C(=O)N[C@@H](CO)C(=O)N[C@H]1C(=O)N[C@@H](C)C(=O)N[C@@H]([C@@H](C)O)C(=O)N[C@@H]([C@@H](C)CC)C(=O)O[C@H]1C)[C@@H](C)CC,8,16
CC[C@@H](C)[C@@H](NC(=O)[C@@H](CCC(N)=O)NC(=O)[C@H](CO)NC(=O)[C@@H](NC(=O)[C@@H](Cc1ccccc1)NC)[C@@H](C)CC)C(=O)N[C@H](C(=O)N[C@@H](CO)C(=O)N[C@H]1C(=O)N[C@@H](C)C(=O)N[C@@H](Cc2ccc(O)c([N+](=O)[O-])c2)C(=O)N[C@@H]([C@@H](C)CC)C(=O)O[C@H]1C)[C@@H](C)CC,1,4
CC[C@@H](C)[C@@H](NC(=O)[C@@H](CCC(N)=O)NC(=O)[C@H](CO)NC(=O)[C@@H](NC(=O)[C@@H](Cc1ccccc1)NC)[C@@H](C)CC)C(=O)N[C@H](C(=O)N[C@@H](CO)C(=O)N[C@H]1C(=O)N[C@@H](C)C(=O)NC(C)(C)C(=O)N[C@@H]([C@@H](C)CC)C(=O)O[C@H]1C)[C@@H](C)CC,≥ 32,≥ 32
CC[C@@H](C)[C@@H](NC(=O)[C@@H](CCC(N)=O)NC(=O)[C@H](CO)NC(=O)[C@@H](NC(=O)[C@@H](Cc1ccccc1)NC)[C@@H](C)CC)C(=O)N[C@H](C(=O)N[C@@H](CO)C(=O)N[C@H]1C(=O)N[C@@H](C)C(=O)N[C@@H](C2CCCCC2)C(=O)N[C@@H]([C@@H](C)CC)C(=O)O[C@H]1C)[C@@H](C)CC,0.25,1
CC[C@@H](C)[C@@H](NC(=O)[C@@H](CCC(N)=O)NC(=O)[C@H](CO)NC(=O)[C@@H](NC(=O)[C@@H](Cc1ccccc1)NC)[C@@H](C)CC)C(=O)N[C@H](C(=O)N[C@@H](CO)C(=O)N[C@H]1C(=O)N[C@@H](C)C(=O)N[C@@H](CCC(N)=O)C(=O)N[C@@H]([C@@H](C)CC)C(=O)O[C@H]1C)[C@@H](C)CC,16,16

# From ChEMBL document CHEMBL4184242, “Synthesis and antibacterial studies of teixobactin analogues with non-isostere substitution of enduracididine” (2018)
